Inconclusive results are not listed. Calls of active or inactive are those of the source.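 Rule for the calls: active = inhibition in every test run, with half-maximal concentration at most twice the top tested dose; inconclusive = the separate test runs disagree on their calls; inactive = every test run inactive, including opposite effects.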

Broadly, the AC50 is the concentration at which the activity in the assay is half-maximal.

The target of one assay is Cyclin-dependent kinase 5 (Homo sapiens) + Cyclin-dependent kinase 5 activator 1 (Homo sapiens) (UniProt Q00535+Q15078). Kind of assay: CDK5-p25 kinase inhibition, dose response, selectivity assay for GSK3beta inhibitor project, biochemical, ADP-Glo luminescence, dry powder samples (AID 623999). As to conditions: histone H1 peptide.
Sequence of Cyclin-dependent kinase 5 (Homo sapiens) + Cyclin-dependent kinase 5 activator 1 (Homo sapiens) (Q00535 whole entry, looked up): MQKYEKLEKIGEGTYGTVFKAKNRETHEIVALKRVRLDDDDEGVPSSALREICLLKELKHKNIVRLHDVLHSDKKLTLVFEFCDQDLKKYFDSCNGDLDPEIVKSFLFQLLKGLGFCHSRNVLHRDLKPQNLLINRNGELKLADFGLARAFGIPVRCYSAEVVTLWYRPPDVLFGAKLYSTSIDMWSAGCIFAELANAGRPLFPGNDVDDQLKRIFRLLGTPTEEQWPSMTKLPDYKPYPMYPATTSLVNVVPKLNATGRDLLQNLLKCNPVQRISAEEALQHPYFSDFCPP
Sequence of Cyclin-dependent kinase 5 (Homo sapiens) + Cyclin-dependent kinase 5 activator 1 (Homo sapiens) (Q15078 whole entry, looked up): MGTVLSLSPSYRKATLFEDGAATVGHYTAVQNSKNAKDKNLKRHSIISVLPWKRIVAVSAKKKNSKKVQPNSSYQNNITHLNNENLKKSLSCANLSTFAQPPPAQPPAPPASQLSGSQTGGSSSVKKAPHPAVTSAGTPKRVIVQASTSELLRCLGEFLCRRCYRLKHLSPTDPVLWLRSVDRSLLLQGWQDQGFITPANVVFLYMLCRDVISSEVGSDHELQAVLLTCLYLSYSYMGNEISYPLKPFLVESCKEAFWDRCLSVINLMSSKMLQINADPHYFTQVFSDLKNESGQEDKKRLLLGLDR
As for `Cc1cccc(C2C3=C(CC(C)(C)CC3=O)Nc3n[nH]c(C)c32)c1` (centres undefined), the half-maximal activity concentration (AC50) is 39.7 µM.
Regarding `O/N=C/c1cn(-c2ccccc2)nc1-c1ccc(Cl)cc1`, the AC50 was 25.4 µM.
As for `Cc1[nH]nc2c1C(C)(c1ccccc1)C1=C(CC(C)(C)CC1=O)N2` (centres undefined), the AC50 is 14.5 µM.
`Cc1[nH]nc2c1C(c1cccc(C#N)c1)C1=C(CC(C)(C)CC1=O)N2` (centres undefined): the AC50 is 6.81 µM.
Turning to `CC1(C)CC(=O)C2=C(C1)Nc1n[nH]c(C(F)(F)F)c1C2c1c(F)cccc1F` (centres undefined), the AC50 is 43 µM.
For `CSc1ccccc1C1C2=C(CC(C)(C)CC2=O)Nc2n[nH]c(C)c21` (centres undefined), the AC50 was 3.98 µM.
With `CC1(C)CC(=O)C2=C(C1)Nc1n[nH]c(C(F)(F)F)c1C2c1ccc(F)cc1C(F)(F)F` (centres undefined), the AC50 was 22.4 µM.
Consider `COc1ccccc1C1C2=C(CC(C)(C)CC2=O)Nc2[nH]ncc21` (centres undefined), for which the AC50 was 5.82 µM.
With `COc1ccccc1-c1c2c(nc3n[nH]c(C)c13)CCC2=O`, the AC50 was 34.6 µM.
`Cc1[nH]nc2c1C(c1ccccc1C(F)(F)F)C1=C(CC(C)(C)CC1=O)N2` (centres undefined): the AC50 was 0.841 µM.
As to `Cc1[nH]nc2c1[C@@H](c1ccccc1C(F)(F)F)C1=C(CC(C)(C)CC1=O)N2`, the AC50 was 0.461 µM.
The same measure, in the same setting: under `COc1ccccc1C1C2=C(CCCC2=O)Nc2n[nH]c(C)c21` (centres undefined) stands 15.1 µM; under `CC1(C)CC(=O)C2=C(C1)Nc1n[nH]c(C(F)(F)F)c1C2c1cc(F)ccc1OC(F)(F)F` (centres undefined), 32.6 µM.
On the same count and under the same terms, under `Cc1[nH]nc2c1C(c1ccccc1C#N)C1=C(CC(C)(C)CC1=O)N2` (centres undefined) stands 4.04 µM; under `COc1ccccc1C1C2=C(CCC(C)(C)C2=O)Nc2n[nH]c(C)c21` (centres undefined), 10.1 µM; under `COc1ccccc1C1C(C(C)=O)=C(C)Nc2n[nH]c(C)c21` (centres undefined), 9.55 µM.
The same measure, in the same setting: in the case of `Cc1[nH]nc2c1C(c1ccccc1Cl)C1=C(CC(C)(C)CC1=O)N2` (centres undefined) it was 5.1 µM; in that of `CC1(C)CC(=O)C2=C(C1)Nc1n[nH]c(C(F)(F)F)c1C2c1ccccc1F` (centres undefined), 47.2 µM; in that of `CC1(C)CC(=O)C2=C(C1)Nc1n[nH]c(C(F)(F)F)c1C2c1cc(F)ccc1C(F)(F)F` (centres undefined), 8.29 µM.
For `CC1(C)CC(=O)C2=C(C1)Nc1n[nH]c(C(F)(F)F)c1C2c1ccccc1` (centres undefined), the AC50 is 22.2 µM.
Same read-out and setting: under `COc1ccccc1C1C2=C(CC(C)(C)CC2=O)Nc2n[nH]c(C(C)C)c21` (centres undefined) stands 4.84 µM; under `Cc1[nH]nc2c1C(c1cccc3nonc13)C1=C(CC(C)(C)CC1=O)N2` (centres undefined), 2.57 µM.
`COc1ccccc1C1C2=C(CC3(CCCCC3)CC2=O)Nc2n[nH]c(C)c21` (centres undefined): the AC50 is 5.88 µM.
As to `CCc1[nH]nc2c1C(c1ccccc1OC)C1=C(CC(C)(C)CC1=O)N2` (centres undefined), the AC50 was 2.22 µM.
As for `CC1(C)CC(=O)C2=C(C1)Nc1n[nH]c(C(F)(F)F)c1C2c1cc(F)ccc1F` (centres undefined), the AC50 was 47.4 µM.
Turning to `Cc1ccccc1C1C2=C(CC(C)(C)CC2=O)Nc2n[nH]c(C)c21` (centres undefined), the AC50 is 16.5 µM.
In the case of `Cc1[nH]nc2c1C(c1cccc(C(F)(F)F)c1)C1=C(CC(C)(C)CC1=O)N2` (centres undefined), the AC50 was 10.9 µM.
On the same count and under the same terms, under `O=S(=O)(Nc1ccccn1)c1ccc(N=Cc2c(O)[nH]c3ccc4ncsc4c23)cc1` stands 0.418 µM.
`Cc1[nH]nc2c1C(C)C1=C(CC(C)(C)CC1=O)N2` (centres undefined): the AC50 is 27.8 µM.

Still in this assay, the particulars now being: histone H1 peptide, at 46 µM (top of the series).
Regarding `COc1cccc(-c2nn(-c3ccccc3)cc2/C=N/O)c1`, the “activity change, negative = inhibition” value was “inactive”.
Regarding `CC1(C)CC(=O)/C(=C\c2ccccc2C(F)(F)F)C(=Nc2cc(C(F)(F)F)[nH]n2)C1`, the “activity change, negative = inhibition” value was “inactive”.
As for `COc1ccc(-c2nn(-c3ccccc3)cc2C(=O)N(C)C)cc1`, the “activity change, negative = inhibition” value was “inactive”.
For `O/N=C/c1cn(-c2ccccc2)nc1-c1ccccc1`, the “activity change, negative = inhibition” value was “inactive”.
As for `COc1ccccc1[C@H]1C2=C(CC(C)(C)CC2=O)Nc2n[nH]c(C(F)(F)F)c21`, the “activity change, negative = inhibition” value is “inactive”.
Same read-out and setting: under `Cc1[nH]nc2c1C(c1ccc(C#N)cc1)C1=C(CC(C)(C)CC1=O)N2` (centres undefined) stands “inactive”; under `CC(C)c1ccc(-c2nn(-c3ccccc3)cc2/C=N/O)cc1`, “inactive”.
Still for that read-out and setting: in the case of `COc1ccc(-c2nn(-c3ccccc3)cc2C(=O)O)cc1` it was “inactive”; in that of `O/N=C/c1cn(-c2ccccc2)nc1-c1ccc(F)cc1`, “inactive”.
Take `COc1ccccc1C1C2=C(CC(C)(C)CC2=O)Nc2onc(C)c21` (centres undefined): the “activity change, negative = inhibition” value is “inactive”.
As to `CC(C)COc1ccc(-c2nn(-c3ccccc3)cc2/C=N/O)cc1`, the “activity change, negative = inhibition” value is “inactive”.
The same measure, in the same setting: under `CN(C)Cc1cn(-c2ccccc2)nc1-c1ccccc1` stands “inactive”; under `Cc1[nH]nc2c1C(c1ccc(C(F)(F)F)cc1)C1=C(CC(C)(C)CC1=O)N2` (centres undefined), “inactive”.
`CC1(C)CC(=O)/C(=C\c2cccc(F)c2C(F)(F)F)C(=Nc2cc(C(F)(F)F)[nH]n2)C1`: the “activity change, negative = inhibition” value is “inactive”.
The same measure, in the same setting: under `COc1ccccc1/C=C1\C(=O)CC(C)(C)CC1=Nc1cc(C(F)(F)F)[nH]n1` stands “inactive”; under `Cc1[nH]nc2c1C(C1CCCCC1)C1=C(CC(C)(C)CC1=O)N2` (centres undefined), “inactive”; under `CNC(=O)c1cn(-c2ccccc2)nc1-c1ccc(OC)cc1`, “inactive”.
Take `Cc1[nH]nc2nc3c(cc12)C(=O)CC(C)(C)C3`: the “activity change, negative = inhibition” value is “inactive”.
For the compound `COc1ccc(-c2nn(-c3ccccc3)cc2CO)cc1`, the “activity change, negative = inhibition” value was “inactive”.
On to `COc1ccccc1C1C2=C(CC(C)(C)CC2=O)Nc2n[nH]c(C(C)(C)C)c21` (centres undefined), for which the “activity change, negative = inhibition” value was “inactive”.

(Values after PubChem BioAssay AID623999 (Broad Institute, 2012).)
